Measured values taken from paper PMC4894917, “Differences in Enzymatic Properties of the Saccharomyces kudriavzevii and Saccharomyces uvarum Alcohol Acetyltransferases and Their Impact on Aroma-Active Compounds Production” (Frontiers in Microbiology, 2016).

Tests used:
SuAtf2p = molecular target: T1, SuAtf2p (Saccharomyces uvarum, UniProt A0ABN8WWD5); assay: acetate ester formation by headspace SPME gas chromatography, cell extract; format: biochemical; details: acetyl-CoA 0.8 mM, 50 mM potassium phosphate pH 7.5, 10% glycerol
T1 construct: gene SUVZ07G4070; full-length untagged, pG-SuATF2-TDH3p in S. cerevisiae BY4741 atf1 atf2 iah1, cell extract (strain CLpSuATF2); N-terminus MDSLEEY translated from printed primer pGSuATF2f
T1 sequence (A0ABN8WWD5 1-545): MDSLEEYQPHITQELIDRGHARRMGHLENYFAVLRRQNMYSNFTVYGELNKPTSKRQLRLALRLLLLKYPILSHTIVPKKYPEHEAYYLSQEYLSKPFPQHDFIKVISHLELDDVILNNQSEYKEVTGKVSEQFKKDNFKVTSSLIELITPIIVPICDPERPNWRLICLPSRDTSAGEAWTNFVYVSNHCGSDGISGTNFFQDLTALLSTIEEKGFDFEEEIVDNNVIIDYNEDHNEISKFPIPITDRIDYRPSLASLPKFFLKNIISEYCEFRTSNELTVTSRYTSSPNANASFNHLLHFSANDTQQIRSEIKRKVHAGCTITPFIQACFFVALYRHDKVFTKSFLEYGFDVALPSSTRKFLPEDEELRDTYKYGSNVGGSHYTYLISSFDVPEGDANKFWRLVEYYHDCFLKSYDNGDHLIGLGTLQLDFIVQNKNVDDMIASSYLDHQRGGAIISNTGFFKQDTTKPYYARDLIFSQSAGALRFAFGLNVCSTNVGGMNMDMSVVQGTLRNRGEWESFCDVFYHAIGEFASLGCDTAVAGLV

SkAtf2p = molecular target: T2, SkAtf2p (Saccharomyces kudriavzevii, UniProt A0AA35JHW3); assay: as above; format: biochemical; details: acetyl-CoA 0.8 mM, 50 mM potassium phosphate pH 7.5, 10% glycerol
T2 construct: gene SKDI07G4300; full-length untagged, pG-SkATF2-TDH3p in S. cerevisiae BY4741 atf1 atf2 iah1, cell extract (strain CLpSkATF2); N-terminus MDDIEEY translated from printed primer pGSkATF2f
T2 sequence (A0AA35JHW3 1-535): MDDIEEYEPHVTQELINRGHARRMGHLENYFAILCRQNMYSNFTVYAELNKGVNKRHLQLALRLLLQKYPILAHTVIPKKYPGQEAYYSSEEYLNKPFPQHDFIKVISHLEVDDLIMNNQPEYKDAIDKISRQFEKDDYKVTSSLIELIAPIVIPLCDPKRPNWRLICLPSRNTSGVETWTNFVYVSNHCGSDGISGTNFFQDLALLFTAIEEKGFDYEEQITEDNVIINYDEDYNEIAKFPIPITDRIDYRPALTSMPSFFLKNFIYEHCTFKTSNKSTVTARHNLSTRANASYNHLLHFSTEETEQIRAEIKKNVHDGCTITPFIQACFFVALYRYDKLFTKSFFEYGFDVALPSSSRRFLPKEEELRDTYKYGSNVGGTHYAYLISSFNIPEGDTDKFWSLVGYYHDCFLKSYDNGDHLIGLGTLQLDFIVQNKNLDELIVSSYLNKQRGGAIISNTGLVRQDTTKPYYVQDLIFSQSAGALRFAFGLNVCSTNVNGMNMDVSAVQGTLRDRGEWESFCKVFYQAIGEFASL

ScAtf2p = molecular target: T3, ScAtf2p (Saccharomyces cerevisiae, UniProt P53296); assay: as above; format: biochemical; details: acetyl-CoA 0.8 mM, 50 mM potassium phosphate pH 7.5, 10% glycerol
T3 construct: gene ATF2; full-length untagged, pG-ScATF2-TDH3p in S. cerevisiae BY4741 atf1 atf2 iah1, cell extract (strain CLpScATF2)
T3 sequence (P53296 1-535): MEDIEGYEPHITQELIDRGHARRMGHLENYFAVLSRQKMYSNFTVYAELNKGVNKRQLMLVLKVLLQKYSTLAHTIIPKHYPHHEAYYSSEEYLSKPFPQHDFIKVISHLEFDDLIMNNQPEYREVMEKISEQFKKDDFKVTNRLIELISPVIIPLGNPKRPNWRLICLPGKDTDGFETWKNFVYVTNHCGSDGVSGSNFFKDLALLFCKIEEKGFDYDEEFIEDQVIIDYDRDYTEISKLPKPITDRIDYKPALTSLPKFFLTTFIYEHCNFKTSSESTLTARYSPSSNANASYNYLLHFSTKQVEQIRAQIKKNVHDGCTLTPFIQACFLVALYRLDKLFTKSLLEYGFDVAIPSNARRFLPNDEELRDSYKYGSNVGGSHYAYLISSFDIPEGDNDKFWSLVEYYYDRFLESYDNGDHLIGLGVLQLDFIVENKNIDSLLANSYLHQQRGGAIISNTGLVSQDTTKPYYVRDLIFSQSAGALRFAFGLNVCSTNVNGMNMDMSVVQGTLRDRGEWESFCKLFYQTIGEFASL

[1] = substrate: CC(C)CCO; assay: isoamyl acetate formation by headspace SPME gas chromatography, cell extract; format: biochemical, Saccharomyces cerevisiae; details: acetyl-CoA 0.8 mM, 50 mM potassium phosphate pH 7.5, 10% glycerol, isoamyl alcohol 0.01-100 mM
Text: isoamyl acetate formation by headspace SPME gas chromatography, cell extract on ScAtf1p

[2] = substrate: CC(C)CCO; assay: as above; format: biochemical, Saccharomyces uvarum; details: acetyl-CoA 0.8 mM, 50 mM potassium phosphate pH 7.5, 10% glycerol, isoamyl alcohol 0.01-100 mM
Text: isoamyl acetate formation by headspace SPME gas chromatography, cell extract on SuAtf1p

OCCc1ccccc1 [2-phenylethanol]
acetate ester formation by headspace SPME gas chromatography, cell extract (SuAtf2p; 30 mM alcohol): the proportion of the enzyme activity of SkAtf2p and SuAtf2p to 2-phenylethanol
acetate ester formation by headspace SPME gas chromatography, cell extract (SkAtf2p; 30 mM alcohol): the proportion of the enzyme activity of SkAtf2p and SuAtf2p to 2-phenylethanol
acetate ester formation by headspace SPME gas chromatography, cell extract (ScAtf2p; 30 mM alcohol): all the strains that expressed the individual ATF1 and ATF2 orthologs exhibited activities

CC(C)CCO [isoamyl alcohol]
acetate ester formation by headspace SPME gas chromatography, cell extract (SuAtf2p; 100 mM alcohol): enzymes Atf2 showed considerably stronger activity toward isoamyl alcohol than the other substrates
acetate ester formation by headspace SPME gas chromatography, cell extract (SkAtf2p; 100 mM alcohol): enzymes Atf2 showed considerably stronger activity toward isoamyl alcohol than the other substrates
acetate ester formation by headspace SPME gas chromatography, cell extract (ScAtf2p; 100 mM alcohol): enzymes Atf2 showed considerably stronger activity toward isoamyl alcohol than the other substrates

B1: ScAtf1p (Saccharomyces cerevisiae S288C) (protein)
chain: MNEIDEKNQAPVQQECLKEMIQNGHARRMGSVEDLYVALNRQNLYRNFCTYGELSDYCTRDQLTLALREICLKNPTLLHIVLPTRWPNHENYYRSSEYYSRPHPVHDYISVLQELKLSGVVLNEQPEYSAVMKQILEEFKNSKGSYTAKIFKLTTTLTIPYFGPTGPSWRLICLPEEHTEKWKKFIFVSNHCMSDGRSSIHFFHDLRDELNNIKTPPKKLDYIFKYEEDYQLLRKLPEPIEKVIDFRPPYLFIPKSLLSGFIYNHLRFSSKGVCMRMDDVEKTDDVVTEIINISPTEFQAIKANIKSNIQGKCTITPFLHVCWFVSLHKWGKFFKPLNFEWLTDIFIPADCRSQLPDDDEMRQMYRYGANVGFIDFTPWISEFDMNDNKENFWPLIEHYHEVISEALRNKKHLHGLGFNIQGFVQKYVNIDKVMCDRAIGKRRGGTLLSNVGLFNQLEEPDAKYSICDLAFGQFQGSWHQAFSLGVCSTNVKGMNIVVASTKNVVGSQESLEELCSIYKALLLGP
notes: full-length untagged, pG-ScATF1-TDH3p in S. cerevisiae BY4741 atf1 atf2 iah1, cell extract (strain CLpScATF1)
Km [1]: 32.2 ± 2.2 mM
Vmax [1]: 0.00999 µmol/min/mg

B2: SuAtf1p (Saccharomyces uvarum) (protein)
chain: MNTYSEKTSLVQDECLAKMIQNGHSRRMGSVEDLYAALNRQKLYRNFSTYSELNDYCTKDQLTLALRNICLKNPTLLHIVLPARWPDYENYYLSTEYYSQPHPKHDYISVLPELKFDGVILNEQPEHNALMKQILQELKDNNGSYTAKVFKLTTALTIPYAGPTSPTWRLICLPEEGHTDKWKKFIFLSNHCMCDGRSSIHFFQDLRDELNNMKTPPKKLDYIFQYEKDYQLLRKLPEPIENMIDFRPPYMFIPKSLISGFIYSHLRFSSKGVCTRMDEIEKSDEVVTEIITISPSEFQKIKAIIKSNIPGKCTITPFLEVCWFVSLHKWGKFFKPLKFEWLTDVFIPADCRSLLPEDEEVRAMYRYGANVGFVDFTPWISEFNMNDSKENFWPLIAHYHEVISGAIKDKKHLNGLGFNIQGLVQKYVNIDKVMRDRALGKSRGGTLLSNVGIFHQSEETDSRYSIRDLAFGQFQGSWHQAFSLGVCSTNVKGMNIVISSTKNVVGSQESLEELCAMYKALLLNP
notes: full-length untagged, pG-SuATF1-TDH3p in S. cerevisiae BY4741 atf1 atf2 iah1, cell extract (strain CLpSuATF1); N-terminus MNTYSE translated from printed primer pGSuATF1f
Km [2]: 92.9 ± 10.9 mM
Vmax [2]: 0.00569 µmol/min/mg
